Experimental data: patent US20150080475A1, “Memantine Protects Inflammation-Related Degeneration of Dopamine Neurons Through Inhibition of Over-Activated Microglia and Release of Neurotrophic Factors From Astroglia” (priority 2009, published 2015)

Assays:
TH-ir neurons = assay: Cell count of TH-ir neurons in rat neuron-glia cultures; assay type: cell-based
Description: For visual counting of TH-ir neurons after Immunostaining, nine representative areas per well of the 24-well plate were counted under the microscope at 100¥ magnification. To measure the average TH-ir dendrite, 50 TH-ir representative neurons in each well were selected and three wells for each treatment condition were selected. In addition, the average dendrite length of TH-ir neurons was measured (Liu Y X, Qin L, Wilson B C, An L, Hong J S and Liu B (2002b) Inhibition by naloxone stereoisomers of -amyloid peptide (1-42)-induced superoxide production in microglia and degeneration of cortical and mesencephalic neurons. J Pharmacol Exp Ther 302: 1212-1219.).
Rat mesencephalic neuron-glia cultures were pretreated for 30 min with vehicle or 1, 3, 10 μM MMT before adding LPS (2.5 to 5 ng/ml) to the cultures. One week later, the neurotoxic effect of LPS on DA neurons were assessed by both [H^3] DA uptake, which measures the functional capacity of high affinity uptake of DA cells and cell count of tyrosine hydroxylase-positive (TH-ir) cells. [H^3] […] MMT alone increased the uptake capacity by 30-80% in 3 and 10 μM of MMT, respectively. […] The neurotrophic effect of MMT is astrocyte-dependent. Astrocytes, not micrglia, contribute to the neurotrophic effect of MMT at 1-10 μM MMT (FIG. 10).
In addition to the pre-treatment experiments, similar studies using post-treatment designs were conducted to determine the efficacy of MMT. In these experiments, neuron-glia cultures were either treated with MMT (10 μM) and LPS (2.5 ng/ml) at the same time, or MMT was added 30, 60, 120 or 180 min after the addition of LPS. One week later, DA uptake of the culture was assayed.
DA neurons were recognized with the polyclonal antibody against tyrosine hydroxylase (TH) and microglia was detected with the OX-42 antibody against CR3 receptor. […] To quantify cell numbers, nine representative areas per well in the 24-well plate were counted under the microscope at 100× magnification by two individuals. […]

GDNF = assay: RT-PCR of GDNF mRNA in astroglial cultures; assay type: cell-based, rat; conditions: memantine 10 μM, time-dependent, 0 min to 24 h
Description: GDNF mediated memantine-induced neurotrophic effects. Rat primary astroglia were exposed to 10 μM memantine for various time points ranging from 0 minute to 24 h. (FIG. 5A) Total RNA was extracted. […] (FIG. 5B) The ratio of densitometry values of GDNF and β-actin was analyzed and normalized to 0 min value. (FIG. 5C) Total protein of astroglial cells was extracted. Western blot analyses were performed with the antibody to GDNF. GAPDH was used as loading control. (FIG. 5D) The ratio of densitometry values of GDNF and GAPDH was analyzed and normalized to 0 min value. Values were expressed as mean±S.E.M. of three independent experiments. *p<0.05, **p<0.01, ***p<0.001, Bonferroni t-test vs 0 min for FIG. 5B and FIG. 5D; (FIG. 5E) Neuron-glia cultures were treated with either control goat IgG (isotype Ab), or goat anti-GDNF, combined with memantine (10 μM) treatment. DA uptake capacity was measured 7 days later. Results were expressed as a percentage of the vehicle-treated control cultures and represented mean±S.E.M. of three independent experiments performed in triplicate. *p<0.05, **p<0.01, ***p<0.001, Bonferroni's test vs control; #p<0.05, Bonferroni t-test vs memantine treated cultures.
Mixed-glia cultures were first prepared from brains of 1-day-old Fisher 344 rat pups, as described previously. […]

CC12CC3CC(C)(C1)CC(N)(C3)C2.Cl [MMT, 1-amino-3,5-dimethyladamantane hydrochloride]
effect on LPS-induced reduction in the number of TH-ir neurons (TH-ir neurons; MMT 3 and 10 μM): significantly attenuated the LPS-induced reduction in the number of TH-ir neurons | growth of neurites (morphological observation) (TH-ir neurons; MMT alone): enhanced the growth of neurites | number of TH-ir (DA) neurons vs vehicle control (TH-ir neurons; MMT alone): increased the survival DA neuron number | GDNF mRNA levels (GDNF): significant main effects
